Source: patent publication US12410358B2, “Organic acid-based enhanced waterflooding” (UNIVERSITY OF WYOMING, priority 2018, dated 2025)

Key:
[1] = Interfacial shear viscoelasticity, double-wall ring rheometer; format: physicochemical; conditions: for tan (δ) / Fractional G′ / Fractional G″: 1 mM acid in 1% Na2SO4 brine, 25° C.; for tan (δ): compared to the brine; for Fractional G′ / Fractional G″: compared to the brine viscoelastic moduli
Description: Rheological experiments were conducted with the GB oil and a low-salinity brine (1% Na2SO4) spiked with low concentration of organic acids using a TA Instruments AR-G2 Rheometer with a double-wall ring geometry. Measurement of the oil-water interface was performed using the rheometer, as the ring of the rheometer was placed directly on the denser phase, with the second phase added carefully at the end. The shear viscoelasticities were recorded at 25° C. Measurements were run in oscillatory time-sweep mode to measure the shear viscoelastic moduli, as the oscillatory time-sweep mode has high sensitivity to measure low frequency and torque values.
The stress response of the oil-water interface can be calculated utilizing Equation 1: σ(t)=γo[G′(ω)sin(ωt)+G″(ω)cos(ωt)] where σ represents the shear stress, t represents the time, γo is the amplitude of the strain, G′(ω) is the elastic or real modulus, and G″(ω) is the viscous or imaginary modulus. The elastic modulus is the instantaneous response to stress and the viscous modulus is the delayed response quantified by a phase angle. The tangent of this angle is represented by the following equation: […]
Experiments were run in the linear viscoelastic region, determined with a strain sweep test at fixed frequency on individual samples to determine appropriate values for each parameter in the following experiments.
The rheometer was cleaned with toluene and methanol and then air-dried; the Pt/Ir ring of the rheometer was flamed to remove residual contaminants and salts before each experiment. The rheometer was positioned on an air-table and was calibrated for geometry, inertia, and friction before each experiment was prepared. The brine was filtered through a 0.45 μm SFCA filter and examined for bubbles before the ring was lowered to sit at the interface. Next, the oil was added on top of the brine in a manner selected to avoid disruption of the interface formed. Without moving the table, the setup was covered and allowed to run for a minimum of five days. The viscoelasticity was measured several times during the first day and then routinely once a day for the remainder of the experiment duration. The temperature was controlled with the Peltier plate beneath the sample holder. When cleaning the rheometer at the end of the experiment, care was taken to recover as much aqueous phase as possible for NMR and pH measurements.
The interfacial viscoelasticity measurements were conducted on samples having a ratio of two parts aqueous phase to one part oil phase. […]

[2] = Emulsion stability by TD-NMR droplet-size distribution; format: physicochemical; conditions: for Δd3 day 5 / Δσ day 5 / Δd3 day 14 / Δσ day 14: 1 mM acid in 1% Na2SO4, 1:1 with GB oil; for Δd3 day 5 / Δσ day 5: change days 1-5; for Δd3 day 14 / Δσ day 14: change days 1-14; for effect on emulsion stability compared to 1% Na2SO4 brine: 1 mM acid, day 14
Description: Dispersions were prepared in a 1:1 volume ratio with GB oil to each acid (1 mM) in the 1% Na2SO4 brine. The dispersions were emulsified via […] at 6500 rpm for 30 seconds in an Ultra Turrax T25 basic (IKA-Werke) homogenizer. The emulsions were then homogenized for 3 minutes at 6500 rpm to obtain homogeneous droplets for characterization.
Water-in-oil emulsions were prepared for each acid and the time evolution was tracked on a Bruker Biospin Minispec mq20 time domain nuclear magnetic resonance (TD-NMR). This instrument provides information about the polydispersity (σ) of the system and the diameter size (di). The variable i can represent either the diameter in terms of the number of droplets (1=0) or the diameter in terms of average volume of the droplets (1=3). The unimodal droplet size distribution for the created emulsions can be calculated according to Equation 2:
[formula] where qi is the log-normal distribution, d50,i is the geometric mean diameter. Bruker software is used for the NMR and that calculated the droplet size distribution. The change in diameter in relation to the volume is useful because it is indicative of coalescence.
This technique is advantageous as it is non-invasive and independent of the opacity of the dispersion. […] Droplet coalescence and emulsion stability was inferred by tracking the droplet-size distribution density over time.
The influence of the specific acids on coalescence was evaluated with restricted diffusion in a time-domain nuclear magnetic resonance (TD-NMR) system. […] Measurements were recorded within the first hour after emulsification, and every day for days 1-5, and then on days 7, 10, and 14. The TD-NMR system calculates a median diameter, which relates to the number of droplets present (d0) and the volume of the droplets present (d3). […] The Bruker system software also provides a standard deviation, σ, which is applicable for both diameter values and relates to the polydispersity of the droplets in solution.

[3] = Solubility of acids in brine; format: physicochemical; conditions: no pH adjustment
Description: A 1% Na2SO4 brine, equivalent to 2.24 mM (low salinity) and an ionic strength of 6.7 mM, was prepared and vacuumed for two hours before use. The brine was selected because it served as the baseline aqueous phase for the coreflooding experiments. Brine aliquots were then mixed with each of the 18 acid solutions at various concentrations and mixed into solution for several days. […] No adjustments were made to the brine to bring the acids into solution; at higher brine pH, larger naphthenic acids (NAs) solubilize more readily, while smaller ones can often dissolve at neutral pH. At higher pH, the potential for micelle and reverse micelle formation increases. However, embodiments described herein relate to acids that partition naturally, rather than those coaxed from the oil phase, so pH adjustments were not made in order to examine the influence of the acids in the system.
Additionally, the naphthenic acid mixture (NAmix1) was analyzed.

[4] = Oil bridge neck diameter / snap-off experiment; conditions: 1 mM acid in 1% Na2SO4, GB oil bridge; for delay of snap-off / bridge failure compared to low-salinity brine: 1 hour aging
Description: A bridge technique was executed on a modified First Ten Angstroms (FTA) 1000 pendant drop instrument using two opposing vertical needles. The slenderness ratio (A) is defined as the length of the bridge (L) divided by the diameter of the needle (D). A large slenderness ratio is associated with an unstable bridge. The bridge goes through at least two processes. First the oil is bridged between the opposing needles, suspended in the brine and aged up to one hour. While the bridge is aging, the interfacial elasticity increases and the interfacial tension decreases. There are no disruptions or deformation of the system, and thus the surface stress is equal to the interfacial tension. After aging, the bridge goes under the second process during which the oil comprising the bridge is removed at 0.1 μL/s. This response is tracked until bridge failure. During this process, due to the increase in the elasticity of the interface, an extensional longitudinal and compressive circumferential surface stress contribute to the process. The behavior of the oil when the bridge breaks is indicative of the dominant environment of the oil-water interface—e.g., whether the environment is characteristic of an elastic break or an inelastic break. An enhanced elastic break, resulting from the formation of a thick interface, can appear as pointy interface and can show very little recovery of its initial shape, while a viscous break can reform the initial appearance of the oil before the formation of the bridge as shown in FIGS. 8A-8C. FIG. 8A is an image of the bridge initially before any aging or oil removal. FIG. 8B is an image showing the behavior observed in an inelastic break, and FIG. 8C is an image showing the behavior observed in an elastic break. Increased viscoelasticity suppresses interfacial snap-off and helps to sustain a more continuous oil phase. An elastic bridge is much less prone to break and therefore can pull more volumes of oil out (more production).
The behavior of the bridge is monitored with an APPRO camera at a frame rate of 60 frames per second and its geometry is tracked by measuring the neck diameter (ND). The neck diameter is the lowest radius along the vertical axis. The critical neck diameter (CND) is the value corresponding to the last frame of the connected bridge. The ratio of CND/ND is a stability proxy, and assumptions are made that a value close to zero indicates prevalent elastic forces.

SMILES | tan (δ) ([1]; GB oil) [%] | Fractional G′ ([1]; GB oil) | Fractional G″ ([1]; GB oil) [%] | G′ value (elastic modulus) ([1]; 1 mM acid, day 5, GB oil) | G″ value (viscous modulus) ([1]; 1 mM acid, day 5, GB oil) | interface relative to un-acidified brine values ([1]; 10 mM acid, day 5, GB oil) [%] | concentration at which G′ and G″ plateau (acid believed to form aggregates) ([1]; GB oil, 1% Na2SO4 brine) | Δd3 day 5 [2] | Δσ day 5 [2] | Δd3 day 14 [2] | Δσ day 14 [2] | effect on emulsion stability compared to 1% Na2SO4 brine [2] | solubility in 1% Na2SO4 brine [3] | aging time after which solid-like film (skin) was visible [4] | bridge break behaviour (elastic / inelastic) [4] | delay of snap-off / bridge failure compared to low-salinity brine [4] | aging time after which skin was observed [4] [h]
O=C(O)C1CCCCC1 [NA18, cyclohexane carboxylic acid] | 127 | 42% | 53.5 | about 100 mPa | about 35 mPa | 21.2 | above 2.5 mM | 1.5395 | 0.1263 | 1.572 | 0.2238 | stabilize the emulsions | especially soluble at higher concentrations | about 10 minutes | asymmetric elastic skin | delayed bridge failure the longest | 
Cc1ccc(C(=O)O)cc1 [NA12, p-toluic acid] | 189 | 25.8%^ | 48.8 |  |  |  |  | 1.315 | 0.1998 | 1.6025 | 0.3463 | does not encourage coalescence |  |  |  |  | 
O=C(O)[C@@H]1CCCN1 [L-Proline, L-proline] | 114 | 53% | 47 |  |  |  |  | 1.045 | 0.1325 | 1.115 | 0.1722 | stabilize the emulsions |  |  |  |  | 
O=C(O)C1CCCC1 [NA14, cyclopentane carboxylic acid] | 90.6 | 151% | 137 |  |  |  |  | 1.3475 | 1.3475 | 1.4425 | 0.259 | stabilize the emulsions |  |  | more elastic break | delays snap-off | ~12
